Data as given in patent US7956070B2, “Piperidines as chemokine modulators (CCR)” (AstraZeneca AB, priority 2004, dated 2011).
Where two headings read alike, the source gives them in different places.

Columns and labels:
[1] = pKa measurement (Sirius GLpKa); type: physicochemical
Procedure: The pKa of a compound of formula (I) is measured using one of the following methodologies.
The apparatus used consists of a Sirius GLpKa instrument with DPAS (Dip Probe Absorption Spectroscopy) attachment. Key elements of the apparatus are a Sirius pH electrode, stirrer, titrant dispensing tubes, a multi-tipped dispenser, motor driven dispensing syringes, fibre optic UV probe and diode array detector. In addition, solutions in PTFE containers of ionic strength adjusted (0.10 M KCl) distilled water, nominally 0.50 M HCl, nominally 0.50 M KOH and 80% v/v methanol:water are also housed within the instrument. The titration solutions are constantly purged with oxygen free nitrogen. The reservoir for the potassium hydroxide solution is further protected from atmospheric contamination by a soda-lime guard-tube. Samples are placed in titration vessels which in turn are placed in a movable autosampler tray (maximum capacity 48 samples). The electrode, stirrer, dispensing tubing/tips and DPAS probe are housed on a movable, automated z-tower unit, which, controlled by software, positions itself in the appropriate titration vessel when titrating. The Sirius GLpKa instrument is directly connected to a dedicated PC supporting software for assay setup and subsequent data analysis. Assays are set up using the GlpKaControl software and results are analysed using the pKaLOGP and pKaUV software on the PC. The software also allows determination of multiple pKas using complex curve fitting analyses.
Method B: Potentiometric Method
Two types of potentiometric titrations may be performed in order to determine a compound's pKa/pKas; a purely aqueous titration (recommended for fairly water soluble compounds) and a cosolvent titration, where variable amounts of methanol are added to the sample in addition to ionic strength adjusted water (recommended for compounds which are not soluble in water). For the latter, a value for the compound's pKa in pure ionic strength adjusted water can be estimated by the Yasuda-Shedlovsky procedure. This involves measuring the apparent pKa of the compound at three known weight percentages of methanol:water (transposed into reciprocals of the dielectric constants of the medium, 1/εr) and then extrapolating to 0 wt % methanol (1/εr=[…]).
The GLpKa instrument unit also houses two aqueous wash containers (containing distilled water), a waste beaker (to dispense extraneous solutions into) and a container holding pH 7.00 buffer solution for the electrode to be immersed in during periods between titrations. Each time a set of titrations is carried out, these solutions are replaced. Position 1 in the autosampler contains a titration vessel containing pH 7.00 buffer solution (changed for each titration set). For each titration set to be run, position 2 houses a titration vessel into which ionic strength adjusted water is dispensed (typically 15.00 mL). This in turn is adjusted to pH 1.80 with aqueous HCl and then titrated to pH 12.20 by gradual addition of aqueous KOH. This is referred to as a blank titration and is employed by the pKaLogP software in order to calibrate the pH electrode and to standardise the HCl solution, using the so-called four-plus parameter procedure. Periodically, (typically every 3 months, or when the titration solutions run low) the titration solutions are replaced and the KOH solution standardised against potassium hydrogen phthalate using a standardisation procedure within the GLpKaControl software. Between 1-2 mg of each sample must be accurately weighed out. Samples are placed in provided glass titration vessels. The weight of compound must be entered into the GLpKaControl software. […]

human H1 receptor = target: T1, human H1 receptor (Homo sapiens, UniProt P35367); assay: Histamine H1 receptor binding, competition displacement of [3H]-pyrilamine; conditions: 1 nM [3H]-pyrilamine, membranes from recombinant CHO-K1 cells expressing the human H1 receptor, 1 hour at room temperature; read-out: H1 pKi (converted)
T1 construct: purchased Euroscreen SA, Brussels, Belgium ES-390-M; host or cells: recombinant CHO-K1 cells (membranes)
T1 sequence (P35367 whole entry): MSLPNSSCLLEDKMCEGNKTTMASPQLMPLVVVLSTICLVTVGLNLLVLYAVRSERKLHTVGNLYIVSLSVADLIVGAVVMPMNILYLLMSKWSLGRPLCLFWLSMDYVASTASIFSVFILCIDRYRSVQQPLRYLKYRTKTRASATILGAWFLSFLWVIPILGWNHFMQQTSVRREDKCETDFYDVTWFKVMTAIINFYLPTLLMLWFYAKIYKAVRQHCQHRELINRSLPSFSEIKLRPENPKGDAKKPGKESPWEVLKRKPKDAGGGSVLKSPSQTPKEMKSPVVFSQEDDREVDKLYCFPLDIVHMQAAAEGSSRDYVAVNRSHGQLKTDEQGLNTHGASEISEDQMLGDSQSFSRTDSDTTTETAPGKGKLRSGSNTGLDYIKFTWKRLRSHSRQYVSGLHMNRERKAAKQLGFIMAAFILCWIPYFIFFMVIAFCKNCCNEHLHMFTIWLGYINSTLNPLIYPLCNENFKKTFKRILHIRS
Procedure: Histamine H1 receptor binding activity of compounds of the invention was assessed by competition displacement of 1 nM [3H]-pyrilamine (Amersham, Bucks, Product code TRK 608, specific activity 30 Ci/mmol) to 2 μg membranes prepared from recombinant CHO-K1 cells expressing the human H1 receptor (Euroscreen SA, Brussels, Belgium, product code ES-390-M) in assay buffer (50 mM Tris pH 7.4 containing 2 mM MgCl2, 250 mM sucrose and 100 mM NaCl) for 1 hour at room temperature.
The following compounds of the invention gave inhibition of [3H]pyrilimine binding: […]

[2] = ionic strength adjusted (0.10 M KCl) water, Method B: potentiometric method, read-out: pKa (measured using Method B)

pKa [1, 2]	Ki (human H1 receptor) [nM]	SMILES	other results
5.9	–	O=C(NC[C@@H](O)CN1CCC(Oc2ccc(Cl)c(Cl)c2)CC1)c1ccc(=O)[nH]c1C(F)(F)F [Example 1, N-{(2R)-3-[4-(3,4-Dichlorophenoxy)piperidin-1-yl]-2-hydroxypropyl}-6-oxo-2-(trifluoromethyl)-1,6-dihydropyridine-3-carboxamide]	–
4.7	–	O=C(NC[C@@H](O)CN1CCC(Oc2ccc(Cl)c(Cl)c2)CC1)c1sc(=O)[nH]c1C(F)(F)F [Example 4, N-{(2R)-3-[4-(3,4-Dichlorophenoxy)piperidin-1-yl]-2-hydroxypropyl}-2,3-dihydro-2-oxo-4-(trifluoromethyl)-5-thiazolecarboxamide]	–
–	126	CN(C[C@@H](O)CN1CCC(Oc2ccc(Cl)c(Cl)c2)CC1)C(=O)c1sc(=O)[nH]c1C(F)(F)F [Example 5, N-{(2S)-3-[4-(3,4-Dichlorophenoxy)piperidin-1-yl]-2-hydroxypropyl}-N-methyl-2-oxo-4-(trifluoromethyl)-2,3-dihydro-1,3-thiazole-5-carboxamide]	–
–	126	N#Cc1cc(C(=O)NC[C@@H](O)CN2CCC(Oc3ccc(Cl)c(Cl)c3)CC2)c(C(F)(F)F)[nH]c1=O [Example 10, 5-Cyano-N-{(2R)-3-[4-(3,4-dichlorophenoxy)piperidin-1-yl]-2-hydroxypropyl}-6-oxo-2-(trifluoromethyl)-1,6-dihydropyridine-3-carboxamide]	–
3	–	Cc1c(Cl)ccc(OC2CCN(C[C@H](O)CNC(=O)c3cc(C#N)c(=O)[nH]c3C(F)(F)F)CC2)c1Cl [Example 11, 5-Cyano-N-{(2R)-3-[4-(2,4-dichloro-3-methylphenoxy)piperidin-1-yl]-2-hydroxypropyl}-6-oxo-2-(trifluoromethyl)-1,6-dihydropyridine-3-carboxamide]	–
3	–	N#Cc1cc(C(=O)NC[C@@H](O)CN2CCC(Oc3ccc(Cl)c(Cl)c3)CC2)c(-c2ccccc2)[nH]c1=O [Example 12, 5-Cyano-N-{(2R)-3-[4-(3,4-dichlorophenoxy)piperidin-1-yl]-2-hydroxypropyl}-6-oxo-2-phenyl-1,6-dihydropyridine-3-carboxamide]	–
–	126	Cn1c(C(=O)NC[C@@H](O)CN2CCC(Oc3ccc(Cl)c(Cl)c3)CC2)cc(=O)[nH]c1=O [Example 14, N-{(2R)-3-[4-(3,4-Dichlorophenoxy)piperidin-1-yl]-2-hydroxypropyl}-3-methyl-2,6-dioxo-1,2,3,6-tetrahydropyrimidine-4-carboxamide]	–
5.2	–	O=C(NC[C@@H](O)CN1CCC(Oc2ccc(Cl)c(Cl)c2)CC1)c1nn[nH]c1SCC(F)(F)F [Example 19, N-{(2R)-3-[4-(3,4-Dichlorophenoxy)piperidin-1-yl]-2-hydroxypropyl}-5-[(2,2,2-trifluoroethyl)thio]-1H-1,2,3-triazole-4-carboxamide]	–
–	200	O=C(O)c1ccc(C(=O)NC[C@@H](O)CN2CCC(Oc3ccc(Cl)c(Cl)c3)CC2)c2ccccc12 [Example 20, 4-[({(2R)-3-[4-(3,4-Dichlorophenoxy)piperidin-1-yl]-2-hydroxypropyl}amino)-carbonyl]-1-naphthoic acid]	–
7.5	–	CS(=O)(=O)Nc1nc(C(F)(F)F)c(C(=O)NC[C@@H](O)CN2CCC(Oc3ccc(Cl)c(Cl)c3)CC2)s1 [Example 21, N-{(2R)-3-[4-(3,4-Dichlorophenoxy)piperidin-1-yl]-2-hydroxypropyl}-2-[(methylsulfonyl)amino]-4-(trifluoromethyl)-1,3-thiazole-5-carboxamide]	–
–	20	Cc1c(OC2CCN(C[C@H](O)CNC(=O)c3sc(=O)[nH]c3C(F)(F)F)CC2)ccc(Cl)c1Cl [Example 24, N-{(2R)-3-[4-(3,4-Dichloro-2-methylphenoxy)piperidin-1-yl]-2-hydroxypropyl}-2-oxo-4-(trifluoromethyl)-2,3-dihydro-1,3-thiazole-5-carboxamide]	–
6.1	–	O=C(NC[C@@H](O)CN1CCC(Oc2ccc(Cl)c(Cl)c2)CC1)c1nn[nH]c1-c1ccc(F)cc1 [Example 26, N-{(2R)-3-[4-(3,4-Dichlorophenoxy)piperidin-1-yl]-2-hydroxypropyl}-5-(4-fluorophenyl)-1H-1,2,3-triazole-4-carboxamide]	–
–	251	N#Cc1ccc(OC2CCN(C[C@H](O)CNC(=O)c3sc(=O)[nH]c3C(F)(F)F)CC2)cc1Cl [Example 27, N-{(2R)-3-[4-(3-Chloro-4-cyanophenoxy)piperidin-1-yl]-2-hydroxypropyl}-2-oxo-4-(trifluoromethyl)-2,3-dihydro-1,3-thiazole-5-carboxamide]	–
–	39.8	O=C(NC[C@H](O)CN1CCC(Oc2ccc(Cl)c(Cl)c2)CC1)c1sc(=O)[nH]c1C(F)(F)F [Example 28, N-{(2S)-3-[4-(3,4-Dichlorophenoxy)piperidin-1-yl]-2-hydroxypropyl}-2-oxo-4-(trifluoromethyl)-2,3-dihydro-1,3-thiazole-5-carboxamide]	–
–	158	CC(C)c1[nH]nnc1C(=O)NC[C@@H](O)CN1CCC(Oc2ccc(C#N)c(Cl)c2)CC1 [Example 31, N-{(2R)-3-[4-(3-Chloro-4-cyanophenoxy)piperidin-1-yl]-2-hydroxypropyl}-5-isopropyl-1H-1,2,3-triazole-4-carboxamide]	–
6.6	–	O=C(NC[C@@H](O)CN1CCC(Oc2ccc(Cl)c(Cl)c2)CC1)c1sc(=O)[nH]c1CC(F)(F)F [Example 33, N-{(2R)-3-[4-(3,4-Dichlorophenoxy)piperidin-1-yl]-2-hydroxypropyl}-2-oxo-4-(2,2,2-trifluoroethyl)-2,3-dihydro-1,3-thiazole-5-carboxamide]	–
5.5	–	CSc1[nH]nnc1C(=O)NC[C@@H](O)CN1CCC(Oc2ccc(Cl)c(Cl)c2)CC1 [Example 36, N-{(2R)-3-[4-(3,4-Dichlorophenoxy)piperidin-1-yl]-2-hydroxypropyl}-5-(methylthio)-1H-1,2,3-triazole-4-carboxamide]	–
–	200	O=C(NC[C@@H](O)CN1CCC(Oc2ccc(Cl)c(Cl)c2)CC1)c1oc(=O)[nH]c1C(F)(F)F [Example 37, N-{(2R)-3-[4-(3,4-Dichlorophenoxy)piperidin-1-yl]-2-hydroxypropyl}-2-oxo-4-(trifluoromethyl)-2,3-dihydro-1,3-oxazole-5-carboxamide]	–
4	–	O=C(NC[C@@H](O)CN1CCC(Oc2ccc(Cl)c(Cl)c2)CC1)c1nn[nH]c1C(F)(F)F [Example 38, N-{(2R)-3-[4-(3,4-Dichlorophenoxy)piperidin-1-yl]-2-hydroxypropyl}-5-(trifluoromethyl)-1H-1,2,3-triazole-4-carboxamide]	–
–	126	CN(c1[nH]nnc1C(=O)NC[C@@H](O)CN1CCC(Oc2ccc(Cl)c(Cl)c2)CC1)S(C)(=O)=O [Example 39, N-{(2R)-3-[4-(3,4-Dichlorophenoxy)piperidin-1-yl]-2-hydroxypropyl}-5-[methyl(methylsulfonyl)amino]-1H-1,2,3-triazole-4-carboxamide]	–
4.7	–	Cc1c(OC2CCN(C[C@H](O)CNC(=O)c3sc(=O)[nH]c3C(F)(F)F)CC2)ccc(C#N)c1Cl [Example 40, N-{(2R)-3-[4-(3-Chloro-4-cyano-2-methylphenoxy)piperidin-1-yl]-2-hydroxypropyl}-2-oxo-4-(trifluoromethyl)-2,3-dihydro-1,3-thiazole-5-carboxamide]	–
–	–	Cc1c(OC2CCN(C[C@H](O)CNC(=O)COc3cccc(C(=O)O)c3)CC2)ccc(Cl)c1Cl [Example 46, 3-[2-({(2R)-3-[4-(3,4-Dichloro-2-methylphenoxy)piperidin-1-yl]-2-hydroxypropyl}amino)-2-oxoethoxy]benzoic acid]	pKa ([1]; method not stated, read-out: measured pKa): 2.6
